Assay results taken from patent publication US10004701B2, “Methods and compositions for treating infection” (UNIVERSITY OF ROCHESTER, priority 2012, dated 2018).
Structures can show the parent of a compound that is named as a salt. Where two headings read alike, the source gives them in different places.

Columns and labels:
Test in all cases: AK assay 384-well format, Prestwick library screening
[1] = tested on: S. aureus strain USA300-0114; type: cell-based, Staphylococcus aureus; conditions: for fold induction at 50 µM: Staphylococcus aureus, USA300, 3 h
E. coli = type: cell-based, Escherichia coli; conditions: for fold induction at 50 µM: Escherichia coli, 3 h
E. faecium = type: cell-based, Enterococcus faecium; conditions: for fold induction at 50 µM: Enterococcus faecium, 3 h
[2] = tested on: A. baumannii strain 98-37-09; type: cell-based, Acinetobacter baumannii; conditions: for fold induction at 50 µM: Acinetobacter baumannii, 983709, 3 h
K. pneumoniae = type: cell-based, Klebsiella pneumoniae; conditions: for fold induction at 50 µM: Klebsiella pneumoniae, 3 h
E. cloacae = type: cell-based, Enterobacter cloacae; conditions: for fold induction at 50 µM: Enterobacter cloacae, 3 h
P. aeruginosa = type: cell-based, Pseudomonas aeruginosa; conditions: for fold induction at 50 µM: Pseudomonas aeruginosa, 3 h
[3] = 50 μM final drug concentration, planktonic, cutoff for positive 3-fold increase, read-out: AK-based Prestwick Library Screening Results, S. aureus (fold increase in extracellular AK activity)
[4] = 50 μM final drug concentration, planktonic, cutoff for positive 3-fold increase, read-out: AK-based Prestwick Library Screening Results, E. coli (fold increase in extracellular AK activity)
[5] = 50 μM final drug concentration, planktonic, cutoff for positive 3-fold increase, read-out: AK-based Prestwick Library Screening Results, E. faecium (fold increase in extracellular AK activity)
[6] = 50 μM final drug concentration, planktonic, cutoff for positive 3-fold increase, read-out: AK-based Prestwick Library Screening Results, A. baumannii (fold increase in extracellular AK activity)
[7] = 50 μM final drug concentration, planktonic, cutoff for positive 3-fold increase, read-out: AK-based Prestwick Library Screening Results, K. pneumoniae (fold increase in extracellular AK activity)
[8] = 50 μM final drug concentration, planktonic, cutoff for positive 3-fold increase, read-out: AK-based Prestwick Library Screening Results, E. cloacae (fold increase in extracellular AK activity)
[9] = 50 μM final drug concentration, planktonic, cutoff for positive 3-fold increase, read-out: AK-based Prestwick Library Screening Results, P. aeruginosa (fold increase in extracellular AK activity)
[10] = 50 μM final drug concentration, 384-well format, cutoff for positive-scoring molecules 3-fold increase

`CCCCC[C@H](O)/C=C/[C@H]1[C@H](O)CC(=O)[C@@H]1CCCCCCC(=O)O` [Alprostadil] showed a fold induction at 50 µM ([1]; planktonic S. aureus, 50 μM final drug concentration, positive cutoff 3-fold increase, read-out: AK-based Prestwick library screening result, S. aureus (fold increase in extracellular AK activity)) of 1.1, a fold induction at 50 µM (E. coli; planktonic E. coli, 50 μM final drug concentration, positive cutoff 3-fold increase, read-out: AK-based Prestwick library screening result, E. coli (fold increase in extracellular AK activity)) of 1.3 and a fold induction at 50 µM (E. faecium; planktonic E. faecium, 50 μM final drug concentration, positive cutoff 3-fold increase, read-out: AK-based Prestwick library screening result, E. faecium (fold increase in extracellular AK activity)) of 1. It also gave a fold induction at 50 µM ([2]; planktonic A. baumannii, 50 μM final drug concentration, positive cutoff 3-fold increase, read-out: AK-based Prestwick library screening result, A. baumannii (fold increase in extracellular AK activity)) of 1, a fold induction at 50 µM (K. pneumoniae; planktonic K. pneumoniae, 50 μM final drug concentration, positive cutoff 3-fold increase, read-out: AK-based Prestwick library screening result, K. pneumoniae (fold increase in extracellular AK activity)) of 1.1 and a fold induction at 50 µM (E. cloacae; planktonic E. cloacae, 50 μM final drug concentration, positive cutoff 3-fold increase, read-out: AK-based Prestwick library screening result, E. cloacae (fold increase in extracellular AK activity)) of 1.4. For the same molecule, the fold induction at 50 µM (P. aeruginosa; planktonic P. aeruginosa, 50 μM final drug concentration, positive cutoff 3-fold increase, read-out: AK-based Prestwick library screening result, P. aeruginosa (fold increase in extracellular AK activity)) was 1.1.
`C=CCSCC1Nc2cc(Cl)c(S(N)(=O)=O)cc2S(=O)(=O)N1` (stereo not drawn) [Althiazide] gave a fold induction at 50 µM [1, 3] of 0.4, a fold induction at 50 µM (E. coli; [4]) of 0.4 and a fold induction at 50 µM (E. faecium; [5]) of 1. For the same molecule, the fold induction at 50 µM [2, 6] was 0.4, the fold induction at 50 µM (K. pneumoniae; [7]) was 0.4 and the fold induction at 50 µM (E. cloacae; [8]) was 0.3. The fold induction at 50 µM (P. aeruginosa; [9]) was 0.4.
For `CN(C)c1nc(N(C)C)nc(N(C)C)n1` [Altretamine], the fold induction at 50 µM ([1]; 50 μM final drug concentration, cutoff for positive-scoring molecules 3-fold increase, read-out: AK-based Prestwick Library Screening Results, S. aureus (fold increase in extracellular AK activity)) was 1.1, the fold induction at 50 µM (E. coli; 50 μM final drug concentration, cutoff for positive-scoring molecules 3-fold increase, read-out: AK-based Prestwick Library Screening Results, E. coli (fold increase in extracellular AK activity)) was 1.3 and the fold induction at 50 µM (E. faecium; 50 μM final drug concentration, cutoff for positive-scoring molecules 3-fold increase, read-out: AK-based Prestwick Library Screening Results, E. faecium (fold increase in extracellular AK activity)) was 1. The fold induction at 50 µM ([2]; 50 μM final drug concentration, cutoff for positive-scoring molecules 3-fold increase, read-out: AK-based Prestwick Library Screening Results, A. baumannii (fold increase in extracellular AK activity)) was 1.3, the fold induction at 50 µM (K. pneumoniae; 50 μM final drug concentration, cutoff for positive-scoring molecules 3-fold increase, read-out: AK-based Prestwick Library Screening Results, K. pneumoniae (fold increase in extracellular AK activity)) was 1 and the fold induction at 50 µM (E. cloacae; 50 μM final drug concentration, cutoff for positive-scoring molecules 3-fold increase, read-out: AK-based Prestwick Library Screening Results, E. cloacae (fold increase in extracellular AK activity)) was 1.4. For the same molecule, the fold induction at 50 µM (P. aeruginosa; 50 μM final drug concentration, cutoff for positive-scoring molecules 3-fold increase, read-out: AK-based Prestwick Library Screening Results, P. aeruginosa (fold increase in extracellular AK activity)) was 1.2.
`Nc1c(Br)cc(Br)cc1CN[C@H]1CC[C@H](O)CC1` [Ambroxol hydrochloride] was tested, and the fold induction at 50 µM ([1]; planktonic S. aureus, 50 μM final drug concentration, cutoff for positive-scoring molecules 3-fold increase, read-out: AK-based Prestwick Library Screening Results, S. aureus (increase in extracellular AK activity)) was 1, the fold induction at 50 µM (E. coli; planktonic E. coli, 50 μM final drug concentration, cutoff for positive-scoring molecules 3-fold increase, read-out: AK-based Prestwick Library Screening Results, E. coli (increase in extracellular AK activity)) was 1 and the fold induction at 50 µM (E. faecium; planktonic E. faecium, 50 μM final drug concentration, cutoff for positive-scoring molecules 3-fold increase, read-out: AK-based Prestwick Library Screening Results, E. faecium (increase in extracellular AK activity)) was 1. The fold induction at 50 µM ([2]; planktonic A. baumannii, 50 μM final drug concentration, cutoff for positive-scoring molecules 3-fold increase, read-out: AK-based Prestwick Library Screening Results, A. baumannii (increase in extracellular AK activity)) was 1.2, the fold induction at 50 µM (K. pneumoniae; planktonic K. pneumoniae, 50 μM final drug concentration, cutoff for positive-scoring molecules 3-fold increase, read-out: AK-based Prestwick Library Screening Results, K. pneumoniae (increase in extracellular AK activity)) was 1 and the fold induction at 50 µM (E. cloacae; planktonic E. cloacae, 50 μM final drug concentration, cutoff for positive-scoring molecules 3-fold increase, read-out: AK-based Prestwick Library Screening Results, E. cloacae (increase in extracellular AK activity)) was 1.5. It also gave a fold induction at 50 µM (P. aeruginosa; planktonic P. aeruginosa, 50 μM final drug concentration, cutoff for positive-scoring molecules 3-fold increase, read-out: AK-based Prestwick Library Screening Results, P. aeruginosa (increase in extracellular AK activity)) of 1.2.
With `Cc1c(N(C)C)c(=O)n(-c2ccccc2)n1C` [Amidopyrine] the “AK-based Prestwick Library Screening Results, S. aureus (increase in extracellular AK activity)” value [1, 10] was 0.4, the “AK-based Prestwick Library Screening Results, E. coli (increase in extracellular AK activity)” value (E. coli; [10]) was 0.5 and the “AK-based Prestwick Library Screening Results, E. faecium (increase in extracellular AK activity)” value (E. faecium; [10]) was 0.9. The “AK-based Prestwick Library Screening Results, A. baumannii (increase in extracellular AK activity)” value [2, 10] was 0.4, the “AK-based Prestwick Library Screening Results, K. pneumoniae (increase in extracellular AK activity)” value (K. pneumoniae; [10]) was 0.5 and the “AK-based Prestwick Library Screening Results, E. cloacae (increase in extracellular AK activity)” value (E. cloacae; [10]) was 0.4. The “AK-based Prestwick Library Screening Results, P. aeruginosa (increase in extracellular AK activity)” value (P. aeruginosa; [10]) was 0.4.
With `NCC[C@H](O)C(=O)N[C@@H]1C[C@H](N)[C@@H](O[C@H]2O[C@H](CN)[C@@H](O)[C@H](O)[C@H]2O)[C@H](O)[C@H]1O[C@H]1O[C@H](CO)[C@@H](O)[C@H](N)[C@H]1O` [Amikacin hydrate] the fold induction at 50 µM [1, 3] was 1.3, the fold induction at 50 µM (E. coli; [4]) was 22.1 and the fold induction at 50 µM (E. faecium; [5]) was 1. For the same molecule, the fold induction at 50 µM [2, 6] was 7.6, the fold induction at 50 µM (K. pneumoniae; [7]) was 6.2 and the fold induction at 50 µM (E. cloacae; [8]) was 4.9. The fold induction at 50 µM (P. aeruginosa; [9]) was 14.2.
With `N=C(N)NC(=O)c1nc(Cl)c(N)nc1N` [Amiloride hydrochloride dihydrate] the fold induction at 50 µM ([1]; 50 μM final drug concentration, 384-well format, cutoff for positive-scoring molecules 3-fold increase, read-out: AK-based Prestwick Library Screening Results, S. aureus (increase in extracellular AK activity)) was 0.4, the fold induction at 50 µM (E. coli; 50 μM final drug concentration, 384-well format, cutoff for positive-scoring molecules 3-fold increase, read-out: AK-based Prestwick Library Screening Results, E. coli (increase in extracellular AK activity)) was 0.5 and the fold induction at 50 µM (E. faecium; 50 μM final drug concentration, 384-well format, cutoff for positive-scoring molecules 3-fold increase, read-out: AK-based Prestwick Library Screening Results, E. faecium (increase in extracellular AK activity)) was 0.8. It also gave a fold induction at 50 µM ([2]; 50 μM final drug concentration, 384-well format, cutoff for positive-scoring molecules 3-fold increase, read-out: AK-based Prestwick Library Screening Results, A. baumannii (increase in extracellular AK activity)) of 0.4, a fold induction at 50 µM (K. pneumoniae; 50 μM final drug concentration, 384-well format, cutoff for positive-scoring molecules 3-fold increase, read-out: AK-based Prestwick Library Screening Results, K. pneumoniae (increase in extracellular AK activity)) of 0.4 and a fold induction at 50 µM (E. cloacae; 50 μM final drug concentration, 384-well format, cutoff for positive-scoring molecules 3-fold increase, read-out: AK-based Prestwick Library Screening Results, E. cloacae (increase in extracellular AK activity)) of 0.4. The fold induction at 50 µM (P. aeruginosa; 50 μM final drug concentration, 384-well format, cutoff for positive-scoring molecules 3-fold increase, read-out: AK-based Prestwick Library Screening Results, P. aeruginosa (increase in extracellular AK activity)) was 0.3.
`NCCCCCC(=O)O` [Aminocaproic acid] gave a fold induction at 50 µM ([1]; read-out: AK-based Prestwick Library Screening Results, S. aureus (fold increase in extracellular AK activity)) of 1.2, a fold induction at 50 µM (E. coli; read-out: AK-based Prestwick Library Screening Results, E. coli (fold increase in extracellular AK activity)) of 1.2 and a fold induction at 50 µM (E. faecium; read-out: AK-based Prestwick Library Screening Results, E. faecium (fold increase in extracellular AK activity)) of 1.1. It also gave a fold induction at 50 µM ([2]; read-out: AK-based Prestwick Library Screening Results, A. baumannii (fold increase in extracellular AK activity)) of 1.3, a fold induction at 50 µM (K. pneumoniae; read-out: AK-based Prestwick Library Screening Results, K. pneumoniae (fold increase in extracellular AK activity)) of 1.2 and a fold induction at 50 µM (E. cloacae; read-out: AK-based Prestwick Library Screening Results, E. cloacae (fold increase in extracellular AK activity)) of 1.6. The fold induction at 50 µM (P. aeruginosa; read-out: AK-based Prestwick Library Screening Results, P. aeruginosa (fold increase in extracellular AK activity)) was 1.1.
Work on `Nc1ccc(C(=O)NCC(=O)O)cc1` [Aminohippuric acid] yielded a fold induction at 50 µM ([1]; 50 μM final drug concentration, planktonic, cutoff for positive-scoring molecules 3-fold increase, read-out: AK-based Prestwick Library Screening Results, S. aureus (fold increase in extracellular AK activity)) of 0.6, a fold induction at 50 µM (E. coli; 50 μM final drug concentration, planktonic, cutoff for positive-scoring molecules 3-fold increase, read-out: AK-based Prestwick Library Screening Results, E. coli (fold increase in extracellular AK activity)) of 0.7 and a fold induction at 50 µM (E. faecium; 50 μM final drug concentration, planktonic, cutoff for positive-scoring molecules 3-fold increase, read-out: AK-based Prestwick Library Screening Results, E. faecium (fold increase in extracellular AK activity)) of 0.9. The fold induction at 50 µM ([2]; 50 μM final drug concentration, planktonic, cutoff for positive-scoring molecules 3-fold increase, read-out: AK-based Prestwick Library Screening Results, A. baumannii (fold increase in extracellular AK activity)) was 0.7, the fold induction at 50 µM (K. pneumoniae; 50 μM final drug concentration, planktonic, cutoff for positive-scoring molecules 3-fold increase, read-out: AK-based Prestwick Library Screening Results, K. pneumoniae (fold increase in extracellular AK activity)) was 0.6 and the fold induction at 50 µM (E. cloacae; 50 μM final drug concentration, planktonic, cutoff for positive-scoring molecules 3-fold increase, read-out: AK-based Prestwick Library Screening Results, E. cloacae (fold increase in extracellular AK activity)) was 0.8. It also gave a fold induction at 50 µM (P. aeruginosa; 50 μM final drug concentration, planktonic, cutoff for positive-scoring molecules 3-fold increase, read-out: AK-based Prestwick Library Screening Results, P. aeruginosa (fold increase in extracellular AK activity)) of 0.7.
